# Assay results from ChEMBL document CHEMBL5465560, “Selectivity Literature for EUbOPEN Chemogenomic Library” (2024).
# Assays:
# [1] = target: Tyrosine-protein kinase Lyn (Homo sapiens, UniProt P07948); test: Selectivity interaction (ActivX KiNativ screen (kinase selectivity in THP-1 cell lysates)) EUB0000639a LYN; type: subcellular; conditions: lysate, at 0.2 µM
# [2] = target: T1, Serine/threonine-protein kinase Nek9 (Homo sapiens) (UniProt Q8TD19); test: Selectivity interaction (ActivX KiNativ screen (kinase selectivity in THP-1 cell lysates)) EUB0000639a NEK9; type: subcellular; conditions: lysate, at 1 µM
# T1 sequence (whole entry): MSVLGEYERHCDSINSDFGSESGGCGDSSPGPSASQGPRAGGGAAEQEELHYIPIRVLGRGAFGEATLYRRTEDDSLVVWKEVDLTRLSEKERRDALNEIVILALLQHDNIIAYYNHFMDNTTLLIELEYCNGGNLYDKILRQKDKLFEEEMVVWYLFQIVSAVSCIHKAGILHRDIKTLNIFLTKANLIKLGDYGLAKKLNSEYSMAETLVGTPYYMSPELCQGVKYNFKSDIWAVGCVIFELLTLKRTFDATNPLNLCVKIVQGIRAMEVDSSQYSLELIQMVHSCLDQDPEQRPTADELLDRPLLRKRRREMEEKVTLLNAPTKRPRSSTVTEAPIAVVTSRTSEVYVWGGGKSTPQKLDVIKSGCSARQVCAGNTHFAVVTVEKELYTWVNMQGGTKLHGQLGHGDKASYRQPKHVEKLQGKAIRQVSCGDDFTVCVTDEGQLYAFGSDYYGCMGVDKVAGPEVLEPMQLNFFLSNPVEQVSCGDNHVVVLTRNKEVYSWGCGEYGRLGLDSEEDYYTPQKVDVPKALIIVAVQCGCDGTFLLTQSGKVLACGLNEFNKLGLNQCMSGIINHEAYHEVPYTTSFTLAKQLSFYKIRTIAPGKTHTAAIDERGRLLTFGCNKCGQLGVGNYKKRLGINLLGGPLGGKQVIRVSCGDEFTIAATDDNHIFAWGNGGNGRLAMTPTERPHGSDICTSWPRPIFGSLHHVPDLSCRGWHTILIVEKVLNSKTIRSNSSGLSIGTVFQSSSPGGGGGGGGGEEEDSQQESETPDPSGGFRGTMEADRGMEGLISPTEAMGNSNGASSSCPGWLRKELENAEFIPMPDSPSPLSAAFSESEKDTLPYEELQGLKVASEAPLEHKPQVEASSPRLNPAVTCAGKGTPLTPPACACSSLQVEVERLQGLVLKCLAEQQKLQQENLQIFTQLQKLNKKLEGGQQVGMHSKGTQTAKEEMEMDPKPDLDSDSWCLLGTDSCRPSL
# [3] = target: Serine/threonine-protein kinase OSR1 (Homo sapiens) (UniProt O95747); test: Selectivity interaction (KinomeScan (DiscoverX)) EUB0000045b OXSR1
# Sequence of Serine/threonine-protein kinase OSR1 (Homo sapiens) (O95747 2-527 limits assumed): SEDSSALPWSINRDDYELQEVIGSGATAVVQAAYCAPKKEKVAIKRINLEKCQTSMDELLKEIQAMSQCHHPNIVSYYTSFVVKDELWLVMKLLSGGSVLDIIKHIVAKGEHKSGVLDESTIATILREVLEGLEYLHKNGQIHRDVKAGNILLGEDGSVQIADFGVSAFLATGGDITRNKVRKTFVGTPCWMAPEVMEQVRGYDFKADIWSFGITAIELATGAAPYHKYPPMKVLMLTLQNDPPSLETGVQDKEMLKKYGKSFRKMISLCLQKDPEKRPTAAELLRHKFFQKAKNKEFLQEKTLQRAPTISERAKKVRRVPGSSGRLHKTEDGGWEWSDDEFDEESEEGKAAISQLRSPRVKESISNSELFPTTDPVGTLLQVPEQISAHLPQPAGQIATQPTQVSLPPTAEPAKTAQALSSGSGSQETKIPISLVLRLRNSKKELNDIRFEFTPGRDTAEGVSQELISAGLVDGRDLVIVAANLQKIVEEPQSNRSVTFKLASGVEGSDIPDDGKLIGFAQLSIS
# [4] = target: Tyrosine-protein kinase Srms (Homo sapiens) (UniProt Q9H3Y6); test: Selectivity interaction (KinomeScan (DiscoverX)) EUB0000045b SRMS
# Sequence of Tyrosine-protein kinase Srms (Homo sapiens) (Q9H3Y6 whole entry): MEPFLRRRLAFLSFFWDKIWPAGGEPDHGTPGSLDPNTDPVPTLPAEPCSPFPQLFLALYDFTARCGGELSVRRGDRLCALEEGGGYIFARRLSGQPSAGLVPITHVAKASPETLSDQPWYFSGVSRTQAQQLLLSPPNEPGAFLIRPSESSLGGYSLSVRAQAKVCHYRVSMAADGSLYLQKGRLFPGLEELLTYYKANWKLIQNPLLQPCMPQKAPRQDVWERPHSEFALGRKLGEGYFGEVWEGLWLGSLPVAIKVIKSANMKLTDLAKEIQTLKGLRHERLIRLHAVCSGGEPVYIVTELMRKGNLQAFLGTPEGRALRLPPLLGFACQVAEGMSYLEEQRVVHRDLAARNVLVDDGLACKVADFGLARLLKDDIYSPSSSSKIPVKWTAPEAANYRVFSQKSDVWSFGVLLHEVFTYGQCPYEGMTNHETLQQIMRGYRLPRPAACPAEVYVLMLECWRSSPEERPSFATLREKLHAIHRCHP
# [5] = target: T2, TGF-beta receptor type-1 (Homo sapiens) (UniProt P36897); test: Selectivity interaction (KinomeScan (DiscoverX)) EUB0000045b TGFBR1
# T2 sequence (whole entry): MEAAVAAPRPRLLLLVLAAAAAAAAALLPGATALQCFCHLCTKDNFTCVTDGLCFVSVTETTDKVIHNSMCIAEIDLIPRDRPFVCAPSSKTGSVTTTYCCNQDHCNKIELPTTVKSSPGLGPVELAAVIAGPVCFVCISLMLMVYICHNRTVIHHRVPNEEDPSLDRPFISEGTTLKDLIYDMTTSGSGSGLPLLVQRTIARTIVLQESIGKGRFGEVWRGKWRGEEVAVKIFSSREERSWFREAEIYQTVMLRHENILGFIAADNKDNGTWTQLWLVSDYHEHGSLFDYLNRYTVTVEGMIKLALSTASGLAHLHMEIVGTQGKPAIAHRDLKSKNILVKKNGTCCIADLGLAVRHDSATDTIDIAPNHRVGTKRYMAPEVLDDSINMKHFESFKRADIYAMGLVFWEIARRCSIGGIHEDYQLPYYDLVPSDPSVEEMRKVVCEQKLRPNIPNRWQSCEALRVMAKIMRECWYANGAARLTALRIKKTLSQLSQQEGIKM
# [6] = target: T3, Serine/threonine-protein kinase RIO1 (Homo sapiens) (UniProt Q9BRS2); test: Selectivity interaction (KinomeScan (DiscoverX)) EUB0001079a RIOK1; conditions: at 1 µM
# T3 sequence (whole entry): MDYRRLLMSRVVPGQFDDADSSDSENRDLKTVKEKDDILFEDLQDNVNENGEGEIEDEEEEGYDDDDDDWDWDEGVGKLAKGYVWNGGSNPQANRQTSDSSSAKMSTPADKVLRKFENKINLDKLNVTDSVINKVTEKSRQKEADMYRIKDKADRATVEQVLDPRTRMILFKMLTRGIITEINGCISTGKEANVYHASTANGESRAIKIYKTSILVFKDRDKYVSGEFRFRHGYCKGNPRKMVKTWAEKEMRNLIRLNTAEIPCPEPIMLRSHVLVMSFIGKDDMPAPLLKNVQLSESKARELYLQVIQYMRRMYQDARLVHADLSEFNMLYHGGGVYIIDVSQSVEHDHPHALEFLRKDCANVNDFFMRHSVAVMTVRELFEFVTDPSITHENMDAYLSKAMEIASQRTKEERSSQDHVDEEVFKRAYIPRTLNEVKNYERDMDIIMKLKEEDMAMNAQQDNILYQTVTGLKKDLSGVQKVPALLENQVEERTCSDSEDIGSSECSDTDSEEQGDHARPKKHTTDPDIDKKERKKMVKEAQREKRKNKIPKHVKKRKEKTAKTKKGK
# [7] = target: Serine/threonine-protein kinase MRCK alpha (Homo sapiens) (UniProt Q5VT25); test: Selectivity interaction (KinomeScan (DiscoverX)) EUB0001619a CDC42BPA; conditions: at 1 µM
# Sequence of Serine/threonine-protein kinase MRCK alpha (Homo sapiens) (Q5VT25 whole entry): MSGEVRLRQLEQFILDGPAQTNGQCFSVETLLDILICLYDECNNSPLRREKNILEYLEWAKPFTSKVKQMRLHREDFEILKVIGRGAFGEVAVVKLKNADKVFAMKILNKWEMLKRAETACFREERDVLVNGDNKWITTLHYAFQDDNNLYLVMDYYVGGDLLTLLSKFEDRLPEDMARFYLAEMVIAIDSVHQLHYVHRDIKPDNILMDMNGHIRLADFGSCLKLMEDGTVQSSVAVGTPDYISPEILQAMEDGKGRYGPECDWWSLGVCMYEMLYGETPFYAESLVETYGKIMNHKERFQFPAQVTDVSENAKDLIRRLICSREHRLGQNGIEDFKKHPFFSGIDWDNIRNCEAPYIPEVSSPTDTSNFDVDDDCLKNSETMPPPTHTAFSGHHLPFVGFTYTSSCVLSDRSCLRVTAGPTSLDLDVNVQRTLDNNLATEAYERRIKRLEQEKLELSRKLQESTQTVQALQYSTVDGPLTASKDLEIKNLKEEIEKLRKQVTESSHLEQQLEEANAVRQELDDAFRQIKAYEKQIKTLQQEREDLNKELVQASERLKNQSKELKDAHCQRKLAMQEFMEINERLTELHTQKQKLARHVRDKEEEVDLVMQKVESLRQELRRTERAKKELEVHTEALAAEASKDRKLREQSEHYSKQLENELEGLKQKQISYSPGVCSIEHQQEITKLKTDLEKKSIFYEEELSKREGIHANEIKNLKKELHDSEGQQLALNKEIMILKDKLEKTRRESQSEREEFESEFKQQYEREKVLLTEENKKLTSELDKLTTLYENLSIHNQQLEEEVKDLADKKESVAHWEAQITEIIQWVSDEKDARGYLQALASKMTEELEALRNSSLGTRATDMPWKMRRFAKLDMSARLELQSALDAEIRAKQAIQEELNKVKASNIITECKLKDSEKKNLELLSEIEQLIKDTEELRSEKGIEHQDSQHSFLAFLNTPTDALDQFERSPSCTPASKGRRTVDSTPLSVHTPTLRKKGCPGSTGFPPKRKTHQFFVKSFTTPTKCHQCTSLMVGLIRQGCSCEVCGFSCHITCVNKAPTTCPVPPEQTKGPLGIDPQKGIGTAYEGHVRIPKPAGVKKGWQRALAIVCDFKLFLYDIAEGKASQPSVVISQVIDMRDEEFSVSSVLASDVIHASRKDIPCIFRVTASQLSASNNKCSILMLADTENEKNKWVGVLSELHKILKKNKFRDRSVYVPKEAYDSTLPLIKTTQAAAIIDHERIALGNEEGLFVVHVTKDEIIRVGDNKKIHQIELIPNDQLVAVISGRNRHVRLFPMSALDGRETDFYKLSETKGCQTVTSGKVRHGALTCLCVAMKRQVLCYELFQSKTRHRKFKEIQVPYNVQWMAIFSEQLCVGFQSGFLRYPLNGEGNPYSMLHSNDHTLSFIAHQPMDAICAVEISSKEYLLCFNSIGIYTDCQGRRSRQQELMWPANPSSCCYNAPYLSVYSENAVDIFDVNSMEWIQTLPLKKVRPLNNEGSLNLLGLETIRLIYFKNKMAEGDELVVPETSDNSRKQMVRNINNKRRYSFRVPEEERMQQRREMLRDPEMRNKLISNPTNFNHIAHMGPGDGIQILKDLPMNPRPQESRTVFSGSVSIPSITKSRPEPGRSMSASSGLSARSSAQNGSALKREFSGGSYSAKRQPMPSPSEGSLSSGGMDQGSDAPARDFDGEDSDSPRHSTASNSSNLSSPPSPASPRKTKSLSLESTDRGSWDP
# Sequence of Tyrosine-protein kinase Lyn (P07948 2-512 limits assumed): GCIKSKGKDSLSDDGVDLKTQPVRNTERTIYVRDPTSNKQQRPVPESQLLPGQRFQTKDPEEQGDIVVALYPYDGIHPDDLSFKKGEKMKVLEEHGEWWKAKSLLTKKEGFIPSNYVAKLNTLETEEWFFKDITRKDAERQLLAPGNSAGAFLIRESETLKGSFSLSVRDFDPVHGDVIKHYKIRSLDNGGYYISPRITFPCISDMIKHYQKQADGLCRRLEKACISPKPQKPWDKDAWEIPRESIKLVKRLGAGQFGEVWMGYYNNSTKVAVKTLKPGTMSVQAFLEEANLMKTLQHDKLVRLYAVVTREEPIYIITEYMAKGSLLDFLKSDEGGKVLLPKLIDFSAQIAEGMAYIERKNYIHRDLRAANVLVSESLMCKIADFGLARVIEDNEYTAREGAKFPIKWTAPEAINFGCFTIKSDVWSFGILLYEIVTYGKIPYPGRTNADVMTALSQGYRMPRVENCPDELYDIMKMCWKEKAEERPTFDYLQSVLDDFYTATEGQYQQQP
structure (smiles),measurement,setting,value
CC[C@@H]1[C@H](F)C(=O)N[C@@H]1COc1nccc2cc(C(N)=O)c(OC)cc12 [ZIMLOVISERTIB],% of inhibition,[1],0%
same,% of inhibition,[2],-1.1%
C=CC(=O)Nc1cc(-n2c(=O)ccc3cnc4ccc(-c5ccc(NS(C)(=O)=O)cc5)cc4c32)ccc1C,% of control,[3]; at 1 µM,100%
same,% of control,[3]; at 10 µM,94%
same,% of control,[4]; at 1 µM,100%
same,% of control,[4]; at 10 µM,100%
same,% of control,[5]; at 1 µM,97%
same,% of control,[5]; at 10 µM,100%
Nc1cnc(N2CCc3cc(S(=O)(=O)Nc4c(F)cc(Cl)cc4F)cc(N4CCCC4=O)c32)nc1 [TP-020n],% of control,[6],100%
N#Cc1cccc(-c2c[nH]c3ncnc(N4CCOCC4)c23)c1,% of control,[7],100%
